Marks after values point to notes of the source that are not given here.
Assays:
in vivo [1] = conditions: rat, sc, 3 mg/kg/day
in vivo [2] = conditions: minipig, topical or ocular, 4 % cream, BID
[3] = Gao et al., Journal of Polymer Research 2011; cited from earlier work
AhR pathway = conditions: intestinal human colon adenocarcinoma
[4] = 28 day twice daily topical administration, toxicokinetics, dermal irritancy and toxicity; assay type: in vivo, Gottingen minipigs; conditions: for concentration at 29 day: Skin Concentration
Method: Following dose application on each dosing day, the dose sites were semi-occluded for approximately 20±1 hours from the first dose and then gently washed before the next dose was applied.

[5] = Dermal 4% cream, BID, Minipig, 13 weeks
[6] = solubility of the active ingredient in solvents; assay type: physicochemical
Method: The solubility of the active ingredient in different solvents was determined. […] The following formulations were prepared with 5%, 10%, 15% and 20% MCT (Formulations 15-18). Two formulations (Formulations 19 and 20) were also prepared where Polawax (a proprietary blend of cetostearyl alcohol and emulsifiers) was replaced with cetostearyl alcohol and additional emulsifier.

With `CC(C)c1c(O)cc(/C=C/c2ccccc2)cc1O` [3,5-Dihydroxy-4-isopropyl-trans-stilbene] the Cmax (in vivo [1]) was 31.6 ng/mL, the AUC at 13 weeks (in vivo [2]) was 99 ng·h/mL and the Cmax (in vivo [2]) was 7.13 ng/mL. The “sensitivity to oxidation and photo degradation” value [3] was “sensitive to oxidation and photo degradation”, the “activity on the AhR pathway” value (AhR pathway) was “activator” and the “survival to scheduled necropsy” value ([4]; 28 days) was “All animals survived”. It also gave a Tmax ([4]; both sexes, Gottingen, minipig, in vivo, 60 mg/kg/day) of 1 to 3 h, an NOAEL at 28 days ([4]; both sexes, Gottingen, minipig, in vivo, topical or ocular, highest dose tested, 28 days, read-out: NOAEL for dermal irritation or systemic toxicity) of 60 mg/kg/day and a concentration at 29 day ([4]; female, Gottingen, minipig, 10 mg/kg/day, Epidermis/Upper Dermis) of 2540 ng/g. It also gave a concentration at 29 day ([4]; female, Gottingen, minipig, 20 mg/kg/day, Epidermis/Upper Dermis) of 2270 ng/g, a concentration at 29 day ([4]; female, Gottingen, minipig, 20 mg/kg/day, Lower Dermis) of 305 ng/g and a concentration at 29 day ([4]; female, Gottingen, minipig, 60 mg/kg/day, Epidermis/Upper Dermis) of 6530 ng/g. It also gave a concentration at 29 day ([4]; female, Gottingen, minipig, 60 mg/kg/day, Lower Dermis) of 3040 ng/g, an AUC(0-t) ([4]; female, Gottingen, minipig, in vivo, topical or ocular, 60 mg/kg/day) of 4.84 ng·h/mL and a concentration at 29 day ([4]; male, Gottingen, minipig, 10 mg/kg/day, Epidermis/Upper Dermis) of 4830 ng/g. For the same compound, the concentration at 29 day ([4]; male, Gottingen, minipig, 10 mg/kg/day, Lower Dermis) was 166 ng/g, the concentration at 29 day ([4]; male, Gottingen, minipig, 20 mg/kg/day, Epidermis/Upper Dermis) was 3950 ng/g and the concentration at 29 day ([4]; male, Gottingen, minipig, 20 mg/kg/day, Lower Dermis) was 615 ng/g. The concentration at 29 day ([4]; male, Gottingen, minipig, 60 mg/kg/day, Epidermis/Upper Dermis) was 10000 ng/g, the concentration at 29 day ([4]; male, Gottingen, minipig, 60 mg/kg/day, Lower Dermis) was 3660 ng/g and the “dermal irritation at the dose site” value ([4]; minipig, in vivo, 60 mg/kg/day) was “no test article-related dermal irritation”. The “Cmax NOAEL” value [5] was 7.13* ng/mL, the “solubility in medium chain triglycerides (MCT)” value [6] was “good solubility” and the solubility in water [6] was “not soluble”.
